Values quoted from earlier work, collected in US20030013675A1 (Boehringer Ingelheim Pharma KG, priority 2001, published 2003).

What was measured:
adherent human monocyte = conditions: in particular human peripheral blood monocyte
antigen-challenged pig = conditions: in vivo
[1] = inhaled at several times the recommended dose

In the case of `CCNC(=O)[C@H]1OC(n2cnc3c(N)nc(NCCc4ccc(CCC(=O)O)cc4)nc32)[C@H](O)[C@@H]1O` (stereo partly shown) [CGS 21680], the neutrophil superoxidase release (Human Neutrophils) is given as “inhibits” and the “endotoxin-stimulated adherent human monocyte TNFα production” value (adherent human monocyte) is given as “decreases”.

For `CCCn1c(=O)c2c(C)nc(CC)n2c2nc(OC)ccc21` [Example D-22888], the antiallergic effect (antigen-challenged pig) is given as “strong antiallergic affect” and the “rhinorrhea in the antigen-challenged pig” value (antigen-challenged pig) is given as “inhibit rhinorrhea”.

For `CCNC(=O)[C@@H]1O[C@H](n2cnc3c(N)ncnc32)[C@@H](O)[C@H]1O` [NECA], the “zymosan-stimulated oxidative activity in guinea pig eosinophils” value (guinea pig eosinophils) is listed as “inhibits”.

In the case of `CC[N+]1(C)[C@@H]2CC(OC(=O)[C@H](CO)c3ccccc3)C[C@H]1[C@@H]1O[C@@H]12` (stereo partly shown) [oxitropium], the “change in heart rate, blood pressure, bladder function, intraocular pressure, or pupillary diameter” value [1] is given as “little or no change”.

In the case of `C[N+]1(C)[C@@H]2C[C@@H](OC(=O)C(O)(c3cccs3)c3cccs3)C[C@H]1[C@@H]1O[C@@H]12` [tiotropium, (1α, 2β, 4β, 5α, 7β)-7-[(hydroxydi-2-thienylacetyl)oxy]-9,9-dimethyl-3-oxa-9-azoniatricyclo[3.3.1.0^2,4]nonane bromide], the “change in heart rate, blood pressure, bladder function, intraocular pressure, or pupillary diameter” value [1] is given as “little or no change”.
